According to patent publication US11427548B2 (Arvinas Operations, Inc., priority 2015, dated 2022):
Like-named read-outs stand apart in the source and are kept apart here.

Target: T1, Androgen Receptor (Homo sapiens, UniProt P10275)
T1 construct: endogenous in cells; host or cells: VCaP cells
T1 sequence (P10275 1-920): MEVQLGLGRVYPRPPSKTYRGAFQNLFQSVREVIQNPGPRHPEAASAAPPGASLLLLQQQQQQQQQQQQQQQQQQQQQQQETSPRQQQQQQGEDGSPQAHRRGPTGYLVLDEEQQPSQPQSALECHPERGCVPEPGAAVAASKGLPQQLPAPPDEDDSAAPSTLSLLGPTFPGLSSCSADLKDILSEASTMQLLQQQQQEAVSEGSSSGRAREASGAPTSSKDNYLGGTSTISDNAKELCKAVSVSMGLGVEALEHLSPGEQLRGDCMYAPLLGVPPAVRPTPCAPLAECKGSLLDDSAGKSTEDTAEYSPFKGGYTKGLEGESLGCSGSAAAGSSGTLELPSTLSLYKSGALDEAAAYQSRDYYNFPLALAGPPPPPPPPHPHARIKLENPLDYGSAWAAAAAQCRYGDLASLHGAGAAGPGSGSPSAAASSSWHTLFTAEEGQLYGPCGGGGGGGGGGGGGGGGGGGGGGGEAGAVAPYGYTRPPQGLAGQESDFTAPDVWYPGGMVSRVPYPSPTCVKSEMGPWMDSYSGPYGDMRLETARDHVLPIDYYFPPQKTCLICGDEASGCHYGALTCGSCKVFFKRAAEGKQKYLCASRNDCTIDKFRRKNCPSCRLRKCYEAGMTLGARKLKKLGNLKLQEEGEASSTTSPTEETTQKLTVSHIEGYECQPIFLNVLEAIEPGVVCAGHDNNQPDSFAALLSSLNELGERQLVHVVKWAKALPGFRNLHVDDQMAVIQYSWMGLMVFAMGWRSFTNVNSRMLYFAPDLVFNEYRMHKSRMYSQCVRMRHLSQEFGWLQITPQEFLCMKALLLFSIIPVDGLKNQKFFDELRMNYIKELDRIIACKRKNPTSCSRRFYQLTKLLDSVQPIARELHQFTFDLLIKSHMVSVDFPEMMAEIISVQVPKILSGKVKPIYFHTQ
Experiment: Androgen Receptor ELISA assay (PathScan AR ELISA) in VCaP cells: AR degradation, Dmax and DC50
Format: cell-based
Method in brief: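 After 24 h exposure of VCaP cells (charcoal-stripped serum, 0.1 nM R1881 agonist, 0.1% DMSO) to seven half-log compound concentrations, residual AR in lysates was measured by PathScan ELISA (TMB absorbance, 450 nm). Cells were plated at 30,000/well and grown at least 3 days beforehand.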

[1] = VCaP cells; Table 36; read-out: VCaP DC50
[2] = VCaP, VCaP cells; Table 36; read-out: VCaP Dmax (%)

Q: Which results are given for Cc1ncsc1-c1ccc([C@H](C)NC(=O)C2C[C@@H](O)CN2C(=O)[C@@H](NC(=O)COCCN2C[C@@H](C)N(c3ccc(C(=O)N[C@H]4C(C)(C)[C@H](Oc5ccc(C#N)c(Cl)c5)C4(C)C)cn3)[C@@H](C)C2)C(C)(C)C)cc1 (stereo partly drawn) [Example 813, N-((1r,3R)-3-(3-chloro-4-cyanophenoxy)-2,2,4,4-tetramethylcyclobutyl)-6-((2S,6R)-4-(2-(2-(((2S)-1-((4R)-4-hydroxy-2-(((S)-1-(4-(4-methylthiazol-5-yl)phenyl)ethyl)carbamoyl)pyrrolidin-1-yl)-3,3-dimethyl-1-oxobutan-2-yl)amino)-2-oxoethoxy)ethyl)-2,6-dimethylpiperazin-1-yl)nicotinamide]?
A: DC50 [1]: < 50 nM; Dmax [2]: > 71%

Q: Which results are given for Cc1ncsc1-c1ccc([C@H](C)NC(=O)C2C[C@@H](O)CN2C(=O)C(NC(=O)CN2CC3(CC(N4CCN(c5ccc(C(=O)NC6C(C)(C)C(Oc7ccc(C#N)c(Cl)c7)C6(C)C)cn5)CC4)C3)C2)C(C)(C)C)cc1 (stereo partly drawn) [Example 814, N-((1r,3r)-3-(3-chloro-4-cyanophenoxy)-2,2,4,4-tetramethylcyclobutyl)-6-(4-(2-(2-(((S)-1-((2S, 4R)-4-hydroxy-2-(((S)-1-(4-(4-methylthiazol-5-yl)phenyl)ethyl)carbamoyl)pyrrolidin-1-yl)-3,3-dimethyl-1-oxobutan-2-yl)amino)-2-oxoethyl)-2-azaspiro [3.3]heptan-6-yl)piperazin-1-yl) nicotinamide]?
A: DC50 [1]: < 50 nM; Dmax [2]: 26 to 50%

Q: How did the DC50 [1] turn out when Cc1ncsc1-c1ccc([C@H](C)NC(=O)C2C[C@@H](O)CN2C(=O)C(NC(=O)COC(C)(C)CN2CCN(c3ccc(C(=O)NC4C(C)(C)C(Oc5ccc(C#N)c(Cl)c5)C4(C)C)cn3)CC2)C(C)(C)C)cc1 (stereo partly drawn) [Example 815, N-((1r,3r)-3-(3-chloro-4-cyanophenoxy)-2,2,4,4-tetramethylcyclobutyl)-6-(4-(2-(2-(((S)-1-((2S, 4R)-4-hydroxy-2-(((S)-1-(4-(4-methylthiazol-5-yl)phenyl)ethyl)carbamoyl)pyrrolidin-1-yl)-3,3-dimethyl-1-oxobutan-2-yl)amino)-2-oxoethoxy)-2-methylpropyl)piperazin-1-yl) nicotinamide] was run?
A: Its DC50 is under 50 nM.

Q: And the Dmax [2]?
A: The Dmax was 51 to 70%.

Q: Cc1ncsc1-c1ccc([C@H](C)NC(=O)[C@@H]2C[C@@H](O)CN2C(=O)[C@@H](NC(=O)CN2C[C@H](C)N(CCCc3ccc(C(=O)N[C@H]4C(C)(C)[C@H](Oc5ccc(C#N)c(Cl)c5)C4(C)C)cc3)C[C@H]2C)C(C)(C)C)cc1 [Example 816, (2S,4R)-1-((S)-2-(2-((2R,5S)-4-(3-(4-(((1r, 3S)-3-(3-chloro-4-cyanophenoxy)-2,2,4,4-tetramethylcyclobutyl)carbamoyl)phenyl)propyl)-2,5-dimethylpiperazin-1-yl)acetamido)-3,3-dimethylbutanoyl)-4-hydroxy-N-((S)-1-(4-(4-methylthiazol-5-yl)phenyl)ethyl) pyrrolidine-2-carboxamide] was tested. Which DC50 [1] did it give?
A: Its DC50 is under 50 nM.

Q: And the Dmax (VCaP, read-out: VCaP Dmax (%))?
A: Its Dmax is over 71%.

Q: What does the source list for Cc1ncsc1-c1ccc([C@H](C)NC(=O)[C@@H]2C[C@@H](O)CN2C(=O)[C@@H](NC(=O)CN2C[C@@H](C)N(CCCc3ccc(C(=O)N[C@H]4C(C)(C)[C@H](Oc5ccc(C#N)c(Cl)c5)C4(C)C)cc3)C[C@@H]2C)C(C)(C)C)cc1 [Example 817, (2S,4R)-1-((S)-2-(2-((2S,5R)-4-(3-(4-(((1r, 3R)-3-(3-chloro-4-cyanophenoxy)-2,2,4,4-tetramethylcyclobutyl)carbamoyl)phenyl)propyl)-2,5-dimethylpiperazin-1-yl)acetamido)-3,3-dimethylbutanoyl)-4-hydroxy-N-((S)-1-(4-(4-methylthiazol-5-yl)phenyl)ethyl) pyrrolidine-2-carboxamide]?
A: DC50 [1]: < 50 nM; Dmax (VCaP, read-out: VCaP Dmax (%)): > 71%

Q: Cc1ncsc1-c1ccc([C@H](C)NC(=O)[C@@H]2C[C@@H](O)CN2C(=O)[C@H](c2cc(CCCN3CCN(c4ccc(C(=O)N[C@H]5C(C)(C)[C@H](Oc6ccc(C#N)c(Cl)c6)C5(C)C)cn4)CC3)no2)C(C)C)cc1 [Example 818, N-((1r,3r)-3-(3-chloro-4-cyanophenoxy)-2,2,4,4-tetramethylcyclobutyl)-6-(4-(3-(5-((S)-1-((2S, 4R)-4-hydroxy-2-(((S)-1-(4-(4-methylthiazol-5-yl)phenyl)ethyl)carbamoyl)pyrrolidin-1-yl)-3-methyl-1-oxobutan-2-yl)isoxazol-3-yl)propyl)piperazin-1-yl) nicotinamide] was tested. Which DC50 [1] did it give?
A: Its DC50 is over 501 nM.

Q: And the Dmax [2]?
A: Its Dmax is under 25%.

Q: Which DC50 [1] does the source give for Cc1ncsc1-c1ccc([C@H](C)NC(=O)[C@@H]2C[C@@H](O)CN2C(=O)[C@@H](c2cc(CCCN3CCN(c4ccc(C(=O)N[C@H]5C(C)(C)[C@H](Oc6ccc(C#N)c(Cl)c6)C5(C)C)cn4)CC3)no2)C(C)C)cc1 [Example 819, N-((1r,3r)-3-(3-chloro-4-cyanophenoxy)-2,2,4,4-tetramethylcyclobutyl)-6-(4-(3-(5-((R)-1-((2S, 4R)-4-hydroxy-2-(((S)-1-(4-(4-methylthiazol-5-yl)phenyl)ethyl)carbamoyl)pyrrolidin-1-yl)-3-methyl-1-oxobutan-2-yl)isoxazol-3-yl)propyl)piperazin-1-yl) nicotinamide] here?
A: The DC50 was under 50 nM.

Q: And the Dmax [2]?
A: The Dmax was over 71%.

Q: Which DC50 [1] does the source give for Cc1ncsc1-c1ccc([C@H](CO)NC(=O)[C@@H]2C[C@@H](O)CN2C(=O)[C@@H](NC(=O)CN2CCN(CCCc3ccc(C(=O)N[C@H]4C(C)(C)[C@H](Oc5ccc(C#N)c(Cl)c5)C4(C)C)cc3)CC2)C(C)(C)C)cc1 [Example 820, (2S,4R)-1-((S)-2-(2-(4-(3-(4-(((1r,3r)-3-(3-chloro-4-cyanophenoxy)-2,2,4,4-tetramethylcyclobutyl)carbamoyl)phenyl)propyl)piperazin-1-yl)acetamido)-3,3-dimethylbutanoyl)-4-hydroxy-N-((R)-2-hydroxy-1-(4-(4-methylthiazol-5-yl)phenyl)ethyl) pyrrolidine-2-carboxamide] here?
A: The DC50 was under 50 nM.

Q: And the Dmax [2]?
A: The Dmax was over 71%.

Q: How did the Dmax (VCaP, read-out: VCaP Dmax (%)) turn out when Cc1ncsc1-c1ccc([C@H](CO)NC(=O)[C@@H]2C[C@@H](O)CN2C(=O)[C@@H](NC(=O)COCCN2C3CCC2CN(c2ccc(C(=O)N[C@H]4C(C)(C)[C@H](Oc5ccc(C#N)c(Cl)c5)C4(C)C)cn2)C3)C(C)(C)C)cc1 [Example 821, N-((1r,3r)-3-(3-chloro-4-cyanophenoxy)-2,2,4,4-tetramethylcyclobutyl)-6-(8-(2-(2-(((S)-1-((2S, 4R)-4-hydroxy-2-(((R)-2-hydroxy-1-(4-(4-methylthiazol-5-yl)phenyl)ethyl)carbamoyl)pyrrolidin-1-yl)-3,3-dimethyl-1-oxobutan-2-yl)amino)-2-oxoethoxy)ethyl)-3,8-diazabicyclo [3.2.1]octan-3-yl) nicotinamide] was run?
A: The Dmax was over 71%.

Q: What about the DC50 (read-out: VCaP DC50; VCaP cells; Table 36) of the same compound?
A: Its DC50 is under 50 nM.

Q: Cc1ncsc1-c1ccc([C@H](CO)NC(=O)C2C[C@@H](O)CN2C(=O)[C@@H](NC(=O)COCCN2CCCN(c3ccc(C(=O)NC4C(C)(C)C(Oc5ccc(C#N)c(Cl)c5)C4(C)C)cn3)CC2)C(C)(C)C)cc1 (stereo partly drawn) [Example 822, N-((1r,3r)-3-(3-chloro-4-cyanophenoxy)-2,2,4,4-tetramethylcyclobutyl)-6-(4-(2-(2-(((S)-1-((2S, 4R)-4-hydroxy-2-(((R)-2-hydroxy-1-(4-(4-methylthiazol-5-yl)phenyl)ethyl)carbamoyl)pyrrolidin-1-yl)-3,3-dimethyl-1-oxobutan-2-yl)amino)-2-oxoethoxy)ethyl)-1,4-diazepan-1-yl) nicotinamide] was tested. Which DC50 [1] did it give?
A: Its DC50 is under 50 nM.

Q: And the Dmax [2]?
A: The Dmax was over 71%.
